Data published in patent US12435044B2, “Pyridazinone herbicides and pyridazinone intermediates used to prepare a herbicide” (FMC Corporation, priority 2018, dated 2025).

Assays:
Format in all cases: in vivo
Conditions in all cases: scale 0 to 100
[1] = test system: chickweed (common chickweed, Stellaria media); experiment: Test C postemergence greenhouse test
Excerpt: (§1) Seeds of plant species selected from blackgrass (Alopecurus myosuroides), ryegrass, Italian (Lolium multiflorum), wheat, winter (winter wheat, Triticum aestivum), galium (catchweed bedstraw, Galium aparine), corn (Zea mays), crabgrass, large (Digitaria sanguinalis), foxtail, giant (Setaria faberii), johnsongrass (Sorghum halepense), lambsquarters (Chenopodium album), morningglory (Ipomoea coccinea), nutsedge, yellow (Cyperus esculentus), pigweed (Amaranthus retroflexus), ragweed (common ragweed, Ambrosia elatior), soybean (Glycine max), barnyardgrass (Echinochloa crus-galli), oilseed rape (Brassica napus), waterhemp (common waterhemp, Amaranthus rudis), pigweed, palmer (Amaranthus palmeri), kochia (Kochia scoparia), oat, wild (Avena fatua), surinam grass (Brachiaria decumbens), windgrass (Apera spica-venti), poinsettia, wild (Euphorbia heterophylla) and velvetleaf (Abutilon theophrasti) were planted into a silt loam soil and treated preemergence with test chemicals formulated in a non-phytotoxic solvent mixture which included a surfactant.
(§2) At the same time, plants selected from these crop and weed species and also chickweed (common chickweed, Stellaria media), buckwheat, wild (Polygonum convolvulus), mustard, wild (Sinapis arvensis), field poppy (Papaver rhoeas), field violet (Viola arvensis), nightshade (eastern black nightshade, Solanum ptycanthum), speedwell (bird's-eye speedwell, Veronica persica), horseweed (Conyza canadensis), cutleaf geranium (Geranium dissectum), and Canada thistle (Cirsium arvense) were planted in pots containing Redi-Earth® planting medium (Scotts Company, 14111 Scottslawn Road, Marysville, Ohio 43041) comprising spaghnum peat moss, vermiculite, wetting agent and starter nutrients and treated with postemergence applications of test chemicals formulated in the same manner. Plants ranged in height from 2 to 18 cm (1- to 4-leaf stage) for postemergence treatments. Treated plants and controls were maintained in a greenhouse for 13 to 21 d, after which time all species were compared to controls and visually evaluated. Plant response ratings, summarized in Table C-1 (postemergence) and C-2 (preemergence), are based on a scale of 0 to 100 where 0 is no effect and 100 is complete control. A dash (-) response means no test result.

[2] = test system: field poppy (Papaver rhoeas); experiment: Test C postemergence greenhouse test
Excerpt: as §1, §2

[3] = test system: johnsongrass (Sorghum halepense); experiment: Test C pre-/postemergence greenhouse test
Method in brief: (§3)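 Seeds sown in silt loam soil and sprayed preemergence with test chemicals in a non-phytotoxic solvent mixture containing surfactant. Postemergence plants, 2 to 18 cm (1- to 4-leaf stage), grown in peat/vermiculite planting medium and treated with the same formulation. Visual injury rated 0–100 versus untreated controls after 13 to 21 d in the greenhouse.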

[4] = test system: surinam grass (Brachiaria decumbens); experiment: Test C pre-/postemergence greenhouse test
Method in brief: as §3

[5] = test system: blackgrass (Alopecurus myosuroides); experiment: Test C pre-/postemergence greenhouse test
Method in brief: as §3

[6] = test system: ryegrass, Italian (Lolium multiflorum); experiment: Test C pre-/postemergence greenhouse test
Method in brief: as §3

[7] = test system: barnyardgrass (Echinochloa crus-galli); experiment: Test C pre-/postemergence greenhouse test
Method in brief: as §3

[8] = test system: poinsettia, wild (Euphorbia heterophylla); experiment: Test C pre-/postemergence greenhouse test
Method in brief: as §3

[9] = test system: foxtail, giant (Setaria faberii); experiment: Test C pre-/postemergence greenhouse test
Method in brief: as §3

[10] = test system: wheat, winter (winter wheat, Triticum aestivum); experiment: Test C pre-/postemergence greenhouse test
Method in brief: as §3

[11] = test system: crabgrass, large (Digitaria sanguinalis); experiment: Test C pre-/postemergence greenhouse test
Method in brief: as §3

SMILES: Cc1cc(Cl)c2ccccc2c1-c1c(O)c(Cl)nn(C)c1=O [Cpd. No. 65]
- Plant response rating, Chickweed ([1]; 16 g ai/ha): 98
- Plant response rating, Chickweed ([1]; 31 g ai/ha): 95
- Plant response rating, Chickweed ([1]; 62 g ai/ha): 95
- Plant response rating, Chickweed ([1]; 125 g ai/ha): 98
- Plant response rating, Field Poppy ([2]; 16 g ai/ha): 80
- Plant response rating, Field Poppy ([2]; 31 g ai/ha): 98
- Plant response rating, Field Poppy ([2]; 62 g ai/ha): 98
- Plant response rating, Field Poppy ([2]; 125 g ai/ha): 100
- Plant response rating, Johnsongrass ([3]; Postemergence, 16 g ai/ha): 20
- Plant response rating, Johnsongrass ([3]; Postemergence, 31 g ai/ha): 40
- Plant response rating, Johnsongrass ([3]; Postemergence, 62 g ai/ha): 75
- Plant response rating, Johnsongrass ([3]; Postemergence, 125 g ai/ha): 85
- Plant response rating, Johnsongrass ([3]; Preemergence, 31 g ai/ha): 5
- Plant response rating, Johnsongrass ([3]; Preemergence, 61 g ai/ha): 0
- Plant response rating, Johnsongrass ([3]; Preemergence, 62 g ai/ha): 5
- Plant response rating, Johnsongrass ([3]; Preemergence, 125 g ai/ha): 20
- Plant response rating, Surinam Grass ([4]; Postemergence, 16 g ai/ha): 90
- Plant response rating, Surinam Grass ([4]; Postemergence, 31 g ai/ha): 90
- Plant response rating, Surinam Grass ([4]; Postemergence, 62 g ai/ha): 95
- Plant response rating, Surinam Grass ([4]; Postemergence, 125 g ai/ha): 95
- Plant response rating, Surinam Grass ([4]; Preemergence, 31 g ai/ha): 55
- Plant response rating, Surinam Grass ([4]; Preemergence, 61 g ai/ha): 15
- Plant response rating, Surinam Grass ([4]; Preemergence, 62 g ai/ha): 70
- Plant response rating, Surinam Grass ([4]; Preemergence, 125 g ai/ha): 100
- Plant response rating, Blackgrass ([5]; Postemergence, 16 g ai/ha): 55
- Plant response rating, Blackgrass ([5]; Postemergence, 31 g ai/ha): 90
- Plant response rating, Blackgrass ([5]; Postemergence, 62 g ai/ha): 90
- Plant response rating, Blackgrass ([5]; Postemergence, 125 g ai/ha): 95
- Plant response rating, Blackgrass ([5]; Preemergence, 31 g ai/ha): 5
- Plant response rating, Blackgrass ([5]; Preemergence, 61 g ai/ha): 10
- Plant response rating, Blackgrass ([5]; Preemergence, 62 g ai/ha): 55
- Plant response rating, Blackgrass ([5]; Preemergence, 125 g ai/ha): 85
- Plant response rating, Ryegrass, Italian ([6]; Postemergence, 16 g ai/ha): 85
- Plant response rating, Ryegrass, Italian ([6]; Postemergence, 31 g ai/ha): 95
- Plant response rating, Ryegrass, Italian ([6]; Postemergence, 62 g ai/ha): 95
- Plant response rating, Ryegrass, Italian ([6]; Postemergence, 125 g ai/ha): 95
- Plant response rating, Ryegrass, Italian ([6]; Preemergence, 31 g ai/ha): 70
- Plant response rating, Ryegrass, Italian ([6]; Preemergence, 61 g ai/ha): 40
- Plant response rating, Ryegrass, Italian ([6]; Preemergence, 62 g ai/ha): 95
- Plant response rating, Ryegrass, Italian ([6]; Preemergence, 125 g ai/ha): 95
- Plant response rating, Barnyardgrass ([7]; Postemergence, 16 g ai/ha): 80
- Plant response rating, Barnyardgrass ([7]; Postemergence, 31 g ai/ha): 85
- Plant response rating, Barnyardgrass ([7]; Postemergence, 62 g ai/ha): 100
- Plant response rating, Barnyardgrass ([7]; Postemergence, 125 g ai/ha): 100
- Plant response rating, Barnyardgrass ([7]; Preemergence, 31 g ai/ha): 20
- Plant response rating, Barnyardgrass ([7]; Preemergence, 61 g ai/ha): 10
- Plant response rating, Barnyardgrass ([7]; Preemergence, 62 g ai/ha): 60
- Plant response rating, Barnyardgrass ([7]; Preemergence, 125 g ai/ha): 75
- Plant response rating, Poinsettia, Wild ([8]; Postemergence, 16 g ai/ha): 70
- Plant response rating, Poinsettia, Wild ([8]; Postemergence, 31 g ai/ha): 95
- Plant response rating, Poinsettia, Wild ([8]; Postemergence, 62 g ai/ha): 80
- Plant response rating, Poinsettia, Wild ([8]; Postemergence, 125 g ai/ha): 100
- Plant response rating, Poinsettia, Wild ([8]; Preemergence, 31 g ai/ha): 35
- Plant response rating, Poinsettia, Wild ([8]; Preemergence, 61 g ai/ha): 25
- Plant response rating, Poinsettia, Wild ([8]; Preemergence, 62 g ai/ha): 70
- Plant response rating, Poinsettia, Wild ([8]; Preemergence, 125 g ai/ha): 100
- Plant response rating, Foxtail, Giant ([9]; Postemergence, 16 g ai/ha): 95
- Plant response rating, Foxtail, Giant ([9]; Postemergence, 31 g ai/ha): 95
- Plant response rating, Foxtail, Giant ([9]; Postemergence, 62 g ai/ha): 98
- Plant response rating, Foxtail, Giant ([9]; Postemergence, 125 g ai/ha): 98
- Plant response rating, Foxtail, Giant ([9]; Preemergence, 31 g ai/ha): 75
- Plant response rating, Foxtail, Giant ([9]; Preemergence, 61 g ai/ha): 35
- Plant response rating, Foxtail, Giant ([9]; Preemergence, 62 g ai/ha): 95
- Plant response rating, Foxtail, Giant ([9]; Preemergence, 125 g ai/ha): 100
- Plant response rating, Wheat ([10]; Postemergence, 16 g ai/ha): 90
- Plant response rating, Wheat ([10]; Postemergence, 31 g ai/ha): 95
- Plant response rating, Wheat ([10]; Postemergence, 62 g ai/ha): 95
- Plant response rating, Wheat ([10]; Postemergence, 125 g ai/ha): 95
- Plant response rating, Wheat ([10]; Preemergence, 31 g ai/ha): 60
- Plant response rating, Wheat ([10]; Preemergence, 61 g ai/ha): 30
- Plant response rating, Wheat ([10]; Preemergence, 62 g ai/ha): 80
- Plant response rating, Wheat ([10]; Preemergence, 125 g ai/ha): 90
- Plant response rating, Crabgrass, Large ([11]; Postemergence, 16 g ai/ha): 30
- Plant response rating, Crabgrass, Large ([11]; Postemergence, 31 g ai/ha): 40
- Plant response rating, Crabgrass, Large ([11]; Postemergence, 62 g ai/ha): 40
- Plant response rating, Crabgrass, Large ([11]; Postemergence, 125 g ai/ha): 70
- Plant response rating, Crabgrass, Large ([11]; Preemergence, 31 g ai/ha): 0
- Plant response rating, Crabgrass, Large ([11]; Preemergence, 61 g ai/ha): 0
- Plant response rating, Crabgrass, Large ([11]; Preemergence, 62 g ai/ha): 60
- Plant response rating, Crabgrass, Large ([11]; Preemergence, 125 g ai/ha): 65
